Experimental findings from patent US9040707B2, “Bicyclic thiazoles as allosteric modulators of mGluR5 receptors” (Janssen Pharmaceutica NV, priority 2009, dated 2015) are described below.

The structures appear in SMILES notation.

The target in one data set is T1, human mGluR5 receptor (Homo sapiens, UniProt P41594).
T1 construct: expressed in transfected cells; host or cells: HEK-293
The data set can be described thus: Functional Assay 1: intracellular Ca2+ mobilization, positive allosteric modulation of glutamate EC20 response. The class given is cell-based. The following applies: for Emax: maximum % effect relative to glutamate ECMax.

The target in the next data set is T2, human mGluR5a receptor (Homo sapiens, UniProt P41594).
T2 construct: host or cells: HEK293A (monoclones H10H and H12H)
T2 sequence (P41594 21-1180 isoform P41594-2 limits assumed): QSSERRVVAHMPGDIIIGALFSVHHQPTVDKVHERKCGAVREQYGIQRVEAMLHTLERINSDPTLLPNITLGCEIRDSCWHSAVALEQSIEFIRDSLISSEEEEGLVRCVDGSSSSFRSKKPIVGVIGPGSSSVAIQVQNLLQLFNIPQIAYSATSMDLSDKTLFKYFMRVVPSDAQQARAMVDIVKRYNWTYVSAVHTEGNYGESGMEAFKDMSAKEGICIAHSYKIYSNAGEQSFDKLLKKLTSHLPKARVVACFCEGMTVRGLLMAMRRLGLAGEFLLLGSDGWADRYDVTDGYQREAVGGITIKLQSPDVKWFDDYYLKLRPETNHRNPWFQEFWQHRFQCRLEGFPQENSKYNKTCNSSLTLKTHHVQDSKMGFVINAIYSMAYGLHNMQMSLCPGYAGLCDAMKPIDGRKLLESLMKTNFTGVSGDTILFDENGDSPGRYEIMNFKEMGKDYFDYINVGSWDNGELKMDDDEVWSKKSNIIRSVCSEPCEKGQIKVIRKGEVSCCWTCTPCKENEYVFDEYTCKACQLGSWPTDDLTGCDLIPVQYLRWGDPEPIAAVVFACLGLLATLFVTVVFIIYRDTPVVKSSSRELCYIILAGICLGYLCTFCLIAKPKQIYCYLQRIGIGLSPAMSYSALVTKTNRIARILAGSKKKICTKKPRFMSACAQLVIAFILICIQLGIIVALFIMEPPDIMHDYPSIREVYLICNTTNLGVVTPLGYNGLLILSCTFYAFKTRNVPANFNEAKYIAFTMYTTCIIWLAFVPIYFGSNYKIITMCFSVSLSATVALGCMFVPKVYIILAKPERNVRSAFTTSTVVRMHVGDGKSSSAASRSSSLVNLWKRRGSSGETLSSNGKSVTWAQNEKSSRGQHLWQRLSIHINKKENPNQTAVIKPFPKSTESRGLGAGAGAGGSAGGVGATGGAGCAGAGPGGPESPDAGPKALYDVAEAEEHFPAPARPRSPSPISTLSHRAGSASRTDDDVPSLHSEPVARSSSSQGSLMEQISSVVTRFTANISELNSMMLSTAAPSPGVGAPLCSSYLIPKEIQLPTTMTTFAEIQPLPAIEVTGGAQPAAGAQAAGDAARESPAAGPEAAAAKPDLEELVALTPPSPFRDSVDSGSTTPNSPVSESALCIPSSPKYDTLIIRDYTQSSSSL
The experiment in a line: Functional Assay 2: Ca2+ mobilization, HEK cells with human mGluR5a receptor (H10H cell line). The class given is cell-based. The following applies: H10H cell line; for EC50: glutamate EC20; for Emax: HEK293, maximum average response at a single concentration, relative to glutamate ECMax. The method, then: Human mGluR5a cDNA in pCMV6-XL6 mammalian expression plasmid was purchased from OriGene Technologies, Inc. (catalogue number SC326357) and subcloned into pcDNA3.1(−). […] Monoclones were named for the species (“H” for human) plus the location on the plate (e.g. “10H”).
The following day, the growth medium was removed and the cells were washed with assay buffer containing 1× Hank's balanced salt solution (Invitrogen, Carlsbad, Calif.), 20 mM HEPES, 2.5 mM probenecid, pH 7.4 and left with 20 μL of this reagent. Following this step, the cells were loaded with calcium indicator dye, fluo-4 AM, to a final concentration of 2 μM and incubated for 40-45 min at 37° C. The dye solution was removed and replaced with assay buffer. Cell plates were held for 10-15 min at room temperature and were then loaded into the Functional Drug Screening System 6000 (FDSS 6000, Hamamatsu, Japan).
After establishment of a fluorescence baseline for about 3 seconds, the compounds of the present invention were added to the cells, and the response in cells was measured. 2.3 minutes later an EC20 concentration of the mGluR5 receptor agonist glutamate was added to the cells, and the response of the cells was measured for about 1.7 minutes. All test compounds were dissolved and diluted to a concentration of 10 mM in 100% DMSO and then serially diluted into assay buffer for a 2× stock solution in 0.6% DMSO; stock compounds were then added to the assay for a final DMSO concentration of 0.3% after the first addition to the assay well. Calcium fluorescence measures were recorded as fold over basal fluorescence; raw data was then normalized to the maximal response to glutamate.
The concentration-response curves of compounds of the present invention, obtained in the presence of EC20 of mGluR5 receptor agonist glutamate to determine positive allosteric modulation, were generated using Microsoft Excel with IDBS XLfit add-ins. The raw data file containing all time points was used as the data source in the analysis template. This was saved by the FDSS as a tab-delimitted text file. Data were normalized using a static ratio function (F/F0) for each measurement of the total 350 values per well divided by each well's initial value. […] This is sufficient time to capture the peak amplitude of the cellular calcium response. […] Each of the three values collected at each concentration of test compound were weighted evenly. […] These two methods are in good agreement for curves with a clear plateau at the high concentration range.

The mark [1] stands for this setting: human mGluR5 over-expressing HEK-293 cells, glutamate EC20 (~0.2 μM), updated value.
Where [2] appears, read: original value, which was updated as compound was further tested.

T1 sequence (P41594 21-1180 isoform P41594-2 limits assumed): as above
Protocol for human mGluR5 receptor: HEK-293 cells were stable transfected with human mGluR5a cDNA in expression vector pcDNA4/TO. For Assay 1, these human mGluR5 receptor over-expressing HEK-293 cells were grown at a density of 40,000 cells/well in PDL-coated 384-well plates. The following day, cells were preloaded with the calcium-sensing dye Fluo-4 AM and various concentrations of test compound were added in the absence of exogenous glutamate to test for direct agonist activity. Shortly (2.5 min) thereafter, an EC20 equivalent of glutamate (˜0.2 μM) was added. The fluorescence signal was monitored using a Hamamatsu Functional Drug Screening System (FDSS) fluorescence plate reader following the addition of compound alone (direct agonist response) and then the further addition of an EC20 of glutamate (positive allosteric modulation response). The pEC50 was defined as the negative log of the test compound concentration which produced an increase in the glutamate EC20-mediated response that was 50% of maximum. Individual amplitudes were expressed as % effect by multiplying each amplitude by 100 and then dividing the product by the mean of the amplitudes derived from the glutamate ECMax-treated wells. Emax values reported in this application are defined as the maximum % effect obtained in a concentration-response curve.

`O=C1c2sc(OCc3ccccc3)nc2CCN1c1ccc(F)cc1F` [Compound 12, 5-(2,4-difluorophenyl)-6,7-dihydro-2-(phenylmethoxy)-thiazolo[5,4-c]pyridin-4(5H)-one] had a melting point of 135 °C. The compound further showed a concentration for a half-maximal effect (EC50) at human mGluR5 receptor (setting [1]) of 1950 nM. The Emax at human mGluR5 receptor was found to be 71%. Further, the EC50 on human mGluR5 receptor (setting [2]) is 550 nM. At human mGluR5a receptor, this compound gave an EC50 of 182 nM and an Emax of 67%.

Compound `O=C1c2sc(OCc3ccccc3)nc2CCN1Cc1ccc(F)cc1` [Compound 14, 5-[(4-fluorophenyl)methyl]-6,7-dihydro-2-(phenylmethoxy)-thiazolo[5,4-c]pyridin-4(5H)-one] returned a melting point of 95.8 to 99 °C. This compound also showed a concentration for a half-maximal effect (EC50) at human mGluR5 receptor (setting [1]) of 5130 nM. The compound further had a maximal effect (Emax) at human mGluR5 receptor of 88%. Moreover, the 50% effective concentration (EC50) on human mGluR5 receptor (setting [2]) is 4470 nM. Moreover, at human mGluR5a receptor, the EC50 was 2240 nM and the Emax was found to be 52%.

Compound `O=C1c2sc(OCc3ccccc3)nc2CCN1Cc1cccc(F)c1` [Compound 15, 5-[(3-fluorophenyl)methyl]-6,7-dihydro-2-(phenylmethoxy)-thiazolo[5,4-c]pyridin-4(5H)-one] showed a melting point of 80.1 to 82 °C. Further, at human mGluR5 receptor (setting [1]), the concentration for a half-maximal effect (EC50) was 3720 nM. The same compound gave an Emax at human mGluR5 receptor of 67%. At human mGluR5 receptor (setting [2]), this compound showed an EC50 of 2570 nM. Moreover, at human mGluR5a receptor, a half-maximal response (EC50) required 912 nM and the maximal effect (Emax) turned out to be 59%.

`O=C1c2sc(OCc3ccccc3)nc2CCN1Cc1ccccc1F` [Compound 16, 5-[(2-fluorophenyl)methyl]-6,7-dihydro-2-(phenylmethoxy)-thiazolo[5,4-c]pyridin-4(5H)-one] came in with a melting point of 77.4 to 79.2 °C. The compound further had a concentration for a half-maximal effect (EC50) at human mGluR5 receptor (setting [1]) of 5370 nM. The compound also registered a maximal effect (Emax) on human mGluR5 receptor of 88%. The midpoint of the response on human mGluR5 receptor (setting [2]), the EC50, lay at 3630 nM. On human mGluR5a receptor, this compound showed an EC50 of 1230 nM and an Emax of 56%.

`O=C1c2sc(OCc3cccc(F)c3)nc2CCN1c1ccc(F)cc1F` [Compound 17, 5-(2,4-difluorophenyl)-2-[(3-fluorophenyl)methoxy]-6,7-dihydro-thiazolo[5,4-c]pyridin-4(5H)-one] returned a melting point of 121.1 to 122.7 °C. Further, the EC50 on human mGluR5 receptor (setting [1]) was 692 nM. The compound further displayed a maximum response (Emax) at human mGluR5 receptor of 82%. This compound showed a 50% effective concentration (EC50) on human mGluR5 receptor (setting [2]) of 741 nM. On human mGluR5a receptor, the midpoint of the response, the EC50, lay at 295 nM and the maximal effect (Emax) was 61%.

Take `O=C1c2sc(OCc3ccccc3F)nc2CCN1c1ccc(F)cc1F` [Compound 18, 5-(2,4-difluorophenyl)-2-[(2-fluorophenyl)methoxy]-6,7-dihydro-thiazolo[5,4-c]pyridin-4(5H)-one]: the melting point is 78.9 to 80.7 °C. The compound also showed an EC50 on human mGluR5 receptor (setting [1]) of 617 nM. Moreover, the Emax at human mGluR5 receptor was determined as 76%. A half-maximal response on human mGluR5 receptor (setting [2]) (EC50) required 513 nM. At human mGluR5a receptor, this compound gave an EC50 of 427 nM and an Emax of 72%.

`O=C1c2sc(OCc3ccc(F)cc3F)nc2CCN1c1ccc(F)cc1F` [Compound 23, 5-(2,4-difluorophenyl)-2-[(2,4-difluorophenyl)methoxy]-6,7-dihydro-thiazolo[5,4-c]pyridin-4(5H)-one] showed a melting point of 104.3 to 107.2 °C. The compound also had a concentration giving a half-maximal response (EC50) at human mGluR5 receptor (setting [1]) of 955 nM. The maximum response (Emax) at human mGluR5 receptor worked out at 54%.

`O=C1c2sc(OCc3cccc(F)c3)nc2CCN1c1ccc(C(F)(F)F)cc1` [Compound 26, 2-[(3-fluorophenyl)methoxy]-6,7-dihydro-5-[4-(trifluoromethyl)phenyl]-thiazolo[5,4-c]pyridin-4(5H)-one]: the melting point lay in the range of 130 to 131.5 °C. Further, at human mGluR5 receptor (setting [1]), the concentration for a half-maximal effect (EC50) was 214 nM. In addition, on human mGluR5 receptor, the maximal effect (Emax) is 46%.

On to `O=C1c2sc(OCc3cccc(F)c3)nc2CCN1c1cccc(F)c1` [Compound 27, 5-(3-fluorophenyl)-2-[(3-fluorophenyl)methoxy]-6,7-dihydro-thiazolo[5,4-c]pyridin-4(5H)-one], for which the melting point was 111.3 to 111.9 °C. Also, a half-maximal response on human mGluR5 receptor (setting [1]) (EC50) required 110 nM. The compound further yielded a maximal effect (Emax) on human mGluR5 receptor of 57%.

Regarding `O=C1c2sc(COc3ccc(Cl)cc3)nc2CCN1c1ccc(F)cc1` [Compound 60, 2-[(4-chlorophenoxy)methyl]-5-(4-fluorophenyl)-6,7-dihydro-thiazolo[5,4-c]pyridin-4(5H)-one], the melting point is 186.9 °C. For the same compound, on human mGluR5 receptor (setting [1]), the concentration giving a half-maximal response (EC50) is above 30200 nM. Further, the Emax on human mGluR5 receptor is 28%.

The compound `O=C1c2sc(COc3ccccc3F)nc2CCN1C1CC1` [Compound 61, 5-cyclopropyl-2-[(2-fluorophenoxy)methyl]-6,7-dihydro-thiazolo[5,4-c]pyridin-4(5H)-one] displayed a melting point of 235.8 to 240.2 °C. At human mGluR5a receptor, this compound showed an EC50 above 30200 nM and an Emax of 27%.

For `O=C1c2sc(COc3ccc(F)cc3)nc2CCN1C1CC1` [Compound 62, 5-cyclopropyl-2-[(4-fluorophenoxy)methyl]-6,7-dihydro-thiazolo[5,4-c]pyridin-4(5H)-one], the melting point fell in the range of 126.3 to 130.8 °C. At human mGluR5a receptor, this compound gave a concentration giving a half-maximal response (EC50) above 10000 nM and a maximum response (Emax) of 51%.

As for `O=C1c2sc(OCc3cc(F)cc(F)c3)nc2CCN1c1ccc(F)cc1F` [Compound 73, 5-(2,4-difluorophenyl)-2-[(3,5-difluorophenyl)methoxy]-6,7-dihydro-thiazolo[5,4-c]pyridin-4(5H)-one], the melting point lay within 127 to 130.5 °C. On human mGluR5a receptor, the half-maximal effective concentration (EC50) was above 30200 nM and the maximal effect (Emax) came out at 16%.

The compound `O=C1c2sc(OCc3ccc(F)c(F)c3)nc2CCN1c1ccc(F)cc1F` [Compound 74, 5-(2,4-difluorophenyl)-2-[(3,4-difluorophenyl)methoxy]-6,7-dihydro-thiazolo[5,4-c]pyridin-4(5H)-one] gave a melting point of 136.9 to 137.2 °C. Further, the EC50 at human mGluR5 receptor (setting [1]) was above 30200 nM. Also, the Emax at human mGluR5 receptor was determined as 32%.

Consider `N#Cc1ccc(COc2nc3c(s2)C(=O)N(c2ccc(F)cc2F)CC3)cc1` [Compound 75, 4-[[[5-(2,4-difluorophenyl)-4,5,6,7-tetrahydro-4-oxothiazolo[5,4-c]pyridin-2-yl]oxy]methyl]-benzonitrile], for which the melting point lay in the range of 180.9 to 183.1 °C. For the same compound, the EC50 on human mGluR5 receptor (setting [1]) was above 30200 nM. The compound further returned an Emax at human mGluR5 receptor of 19%.

With `N#Cc1ccccc1COc1nc2c(s1)C(=O)N(c1ccc(F)cc1F)CC2` [Compound 76, 2-[[[5-(2,4-difluorophenyl)-4,5,6,7-tetrahydro-4-oxothiazolo[5,4-c]pyridin-2-yl]oxy]methyl]-benzonitrile], the melting point is 166.1 to 168.3 °C. Besides, at human mGluR5 receptor (setting [1]), the EC50 was above 30200 nM. The compound further returned an Emax at human mGluR5 receptor of 19%.

`O=C1c2sc(OCc3ccc(C(F)(F)F)cc3)nc2CCN1c1ccc(F)cc1F` [Compound 78, 5-(2,4-difluorophenyl)-6,7-dihydro-2-[[4-(trifluoromethyl)phenyl]methoxy]-thiazolo[5,4-c]pyridin-4(5H)-one] gave a melting point above 280 °C. This compound had an EC50 at human mGluR5 receptor (setting [1]) above 30200 nM. Further, at human mGluR5 receptor, the maximal effect (Emax) came out at 27%.

For the compound `COc1ccccc1COc1nc2c(s1)C(=O)N(c1ccc(F)cc1F)CC2` [Compound 79, 5-(2,4-difluorophenyl)-6,7-dihydro-2-[(2-methoxyphenyl)methoxy]-thiazolo[5,4-c]pyridin-4(5H)-one], the melting point was above 280 °C. Further, at human mGluR5 receptor (setting [1]), the EC50 is above 30200 nM. Moreover, on human mGluR5 receptor, the maximum response (Emax) amounted to 21%.

`O=C1c2sc(OCc3ccccc3C(F)(F)F)nc2CCN1c1ccc(F)cc1F` [Compound 81, 5-(2,4-difluorophenyl)-6,7-dihydro-2-[[2-(trifluoromethyl)phenyl]methoxy]-thiazolo[5,4-c]pyridin-4(5H)-one] registered a melting point above 280 °C. This compound had a 50% effective concentration (EC50) at human mGluR5 receptor (setting [1]) above 30200 nM. For the same compound, at human mGluR5 receptor, the maximal response (Emax) worked out at 25%.
